Results taken from US12655116B2, “Substituted isophthalic acid diamides” (Bayer Aktiengesellschaft, priority 2020, dated 2026).

Tests used:
PHBPU [1] = assay: Pre-emergence herbicidal action against PHBPU; type: in vivo, Pharbitis purpurea; settings: dosage 80 g/ha
How it was run: (§1)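 Pre-emergence soil-surface spray of formulated compound (WP or EC; 600 to 800 l/ha; 0.2% wetting agent) over seeds sown in sandy loam. After 3 weeks under greenhouse conditions, damage is estimated visually in percent against untreated plants.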

ECHCG [2] = assay: Post-emergence herbicidal action against ECHCG; type: in vivo, Echinochloa crus-galli
How it was run: (§2)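 Spray, one-leaf stage: WP or EC compound in water, 600–800 l/ha, 0.2% wetting agent. Plants held about 3 weeks in the greenhouse, then visually rated in percent of kill compared with untreated controls.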

SETVI [3] = assay: Post-emergence herbicidal action against SETVI; type: in vivo, Setaria viridis; settings: dosage 20 g/ha
How it was run: as §2

AVEFA = assay: Pre-emergence herbicidal action against AVEFA; type: in vivo, Avena fatua; settings: for Pre-emergence action against AVEFA: 20 g/ha, scored visually after 3 weeks, 100% = plants have died, 0% = like control plants; for Pre-emergence action against AVEFA in %: 80 g/ha
How it was run: as §1

VIOTR [4] = assay: Post-emergence herbicidal action against VIOTR; type: in vivo, Viola tricolor; settings: 20 g/ha
How it was run: as §2

ABUTH [5] = assay: Post-emergence herbicidal action against ABUTH; type: in vivo, Abutilon theophrasti; settings: dosage 20 g/ha, visual assessment about 3 weeks after treatment vs untreated controls
How it was run: as §2

ALOMY [6] = assay: Pre-emergence herbicidal action against ALOMY; type: in vivo, Alopecurus myosuroides; settings: for Pre-emergence action against ALOMY: 20 g/ha, scored visually after 3 weeks, 100% = plants have died, 0% = like control plants; for Pre-emergence action against ALOMY (herbicidal activity): 80 g/ha, scored visually after 3 weeks vs untreated controls (100% = plants have died, 0% = like control plants)
How it was run: as §1

MATIN [7] = assay: Pre-emergence herbicidal action against MATIN; type: in vivo, Matricaria inodora
How it was run: as §1

SETVI [8] = assay: Pre-emergence herbicidal action against SETVI; type: in vivo, Setaria viridis
How it was run: as §1

AMARE [9] = assay: Post-emergence herbicidal action against AMARE; type: in vivo, Amaranthus retroflexus; settings: 20 g/ha, visual assessment about 3 weeks after treatment, 100% = plants have died, 0% = like control plants
How it was run: as §2

VERPE [10] = assay: Post-emergence herbicidal action against VERPE; type: in vivo, Veronica persica
How it was run: as §2

VERPE [11] = assay: Pre-emergence herbicidal action against VERPE; type: in vivo, Veronica persica
How it was run: as §1

POLCO = assay: Pre-emergence herbicidal action against POLCO; type: in vivo, Polygonum convolvulus
How it was run: as §1

ALOMY [12] = assay: Post-emergence herbicidal action against ALOMY; type: in vivo, Alopecurus myosuroides; settings: dosage 20 g/ha, visual assessment about 3 weeks after treatment vs untreated controls
How it was run: as §2

PHBPU [13] = assay: Post-emergence herbicidal action against PHBPU; type: in vivo, Pharbitis purpurea
How it was run: as §2

ABUTH [14] = assay: Pre-emergence herbicidal action against ABUTH; type: in vivo, Abutilon theophrasti; settings: for Pre-emergence action against ABUTH (herbicidal activity): 80 g/ha, scored visually after 3 weeks vs untreated controls (100% = plants have died, 0% = like control plants); for Pre-emergence action against ABUTH (herbicidal activity in percent): dosage 20 g/ha, scored visually after 3 weeks vs untreated controls, 100% = plants have died, 0% = like control plants
How it was run: as §1

VIOTR [15] = assay: Pre-emergence herbicidal action against VIOTR; type: in vivo, Viola tricolor
How it was run: as §1

MATIN [16] = assay: Post-emergence herbicidal action against MATIN; type: in vivo, Matricaria inodora; settings: dosage 20 g/ha
How it was run: as §2

ECHCG [17] = assay: Pre-emergence herbicidal action against ECHCG; type: in vivo, Echinochloa crus-galli; settings: 80 g/ha
How it was run: as §1

AMARE [18] = assay: Pre-emergence herbicidal action against AMARE; type: in vivo, Amaranthus retroflexus
How it was run: as §1

[19] = 20 g/ha, scored visually after 3 weeks vs untreated controls, 100% = plants have died, 0% = like control plants
[20] = 80 g/ha, scored visually after 3 weeks vs untreated controls (100% = plants have died, 0% = like control plants)

Structure (SMILES) | Pre-emergence action against PHBPU in % (PHBPU [1]) | Post-emergence action against ECHCG in % (ECHCG [2]; dosage 5 g/ha) | Post-emergence action against ECHCG in % (ECHCG [2]; dosage 20 g/ha) | Post-emergence action against SETVI in % (SETVI [3]) | Pre-emergence action against AVEFA (AVEFA) | Pre-emergence action against AVEFA in % (AVEFA) | Post-emergence action against VIOTR in % (VIOTR [4]) | Post-emergence action against ABUTH in % (ABUTH [5]) | Pre-emergence action against ALOMY (ALOMY [6]) | Pre-emergence action against ALOMY (herbicidal activity) (ALOMY [6]) | Pre-emergence action against MATIN in % (MATIN [7]; dosage 20 g/ha) | Pre-emergence action against MATIN in % (MATIN [7]; dosage 80 g/ha) | Pre-emergence action against SETVI in % (SETVI [8]; dosage 80 g/ha) | Post-emergence action at 20 g/ha against AMARE in % (AMARE [9]) | Post-emergence action against VERPE in % (VERPE [10]; 20 g/ha) | Pre-emergence action against VERPE in % (VERPE [11]; dosage 20 g/ha) | Pre-emergence action against VERPE in % (VERPE [11]; dosage 80 g/ha) | Pre-emergence action against POLCO in % (POLCO; dosage 80 g/ha) | Post-emergence action against ALOMY in % (ALOMY [12]) | Post-emergence action against PHBPU in % (PHBPU [13]; dosage 20 g/ha) | further results
CCc1c(C(=O)Nc2nnnn2C)ccc(C(F)(F)F)c1C(=O)NCC1CC1 [Example 1-274] | 90% | 80% | 90% | 90% | 80% | 90% | 80% | 80% | 80% | 90% | 100% | 100% | 100% | 100% | 80% | 90% | 90% | 90% | 80% | 90% | Pre-emergence action against POLCO in % (POLCO; dosage 20 g/ha): 80%; Post-emergence action against PHBPU in % (PHBPU [13]; dosage 5 g/ha): 80%; Pre-emergence action against ABUTH (herbicidal activity) (ABUTH [14]): 100%; Pre-emergence action against ABUTH (herbicidal activity in percent) (ABUTH [14]): 100%; Pre-emergence action against VIOTR in % (VIOTR [15]; dosage 20 g/ha): 90%; Pre-emergence action against VIOTR in % (VIOTR [15]; dosage 80 g/ha): 90%; Post-emergence action against MATIN in % (MATIN [16]): 80%; Pre-emergence action against ECHCG in % (ECHCG [17]): 100%; Pre-emergence action against AMARE in % (AMARE [18]; [19]): 100%; Pre-emergence action against AMARE in % (AMARE [18]; [20]): 100%
CCc1c(C(=O)Nc2nnnn2C)ccc(C(F)(F)F)c1C(=O)NC(C)C1CC1 (stereo not drawn) [Example 1-341] | 80% | 80% | 90% | 80% | 80% | 90% | 80% | 80% | 80% | 90% | 100% | 100% | 100% | 100% | 90% | 80% | 90% | 80% | 80% | 80% | Pre-emergence action against SETVI in % (SETVI [8]; dosage 20 g/ha): 80%; Post-emergence action against VERPE in % (VERPE [10]; 5 g/ha): 80%; Pre-emergence action against ABUTH (herbicidal activity) (ABUTH [14]): 100%; Pre-emergence action against ABUTH (herbicidal activity in percent) (ABUTH [14]): 100%; Pre-emergence action against VIOTR in % (VIOTR [15]; dosage 20 g/ha): 100%; Pre-emergence action against VIOTR in % (VIOTR [15]; dosage 80 g/ha): 100%; Post-emergence action against MATIN in % (MATIN [16]): 80%; Pre-emergence action against ECHCG in % (ECHCG [17]): 90%; Pre-emergence action against AMARE in % (AMARE [18]; [19]): 100%; Pre-emergence action against AMARE in % (AMARE [18]; [20]): 100%
